The source of these data is patent US20250186541A1, “DLL3 TARGETING PEPTIDES AND CONSTRUCTS THEREOF” (MARIANA ONCOLOGY INC., priority 2023, published 2025).

Structures are written as SMILES. Bridge positions count the residues as written; N and C are the ends. Square brackets hold non-standard residues; d marks the D form. Peptide text beside a SMILES is read from it. * marks the point of attachment. DOTA = O=C(O)CN1CCN(CC(=O)O)CCN(CC(=O)*)CCN(CC(=O)O)CC1; 1Nal = N[C@@H](Cc1cccc2ccccc12)C(=O)O; αMeF = C[C@](N)(Cc1ccccc1)C(=O)O; Chg = N[C@H](C(=O)O)C1CCCCC1; dNle = CCCC[C@@H](N)C(=O)O; dNMeA = CN[C@H](C)C(=O)O

For this experiment, the target named is T1, human DLL3 (Homo sapiens, UniProt Q9NYJ7).
T1 construct: biotin (biotinylated)
T1 sequence (Q9NYJ7 27-618): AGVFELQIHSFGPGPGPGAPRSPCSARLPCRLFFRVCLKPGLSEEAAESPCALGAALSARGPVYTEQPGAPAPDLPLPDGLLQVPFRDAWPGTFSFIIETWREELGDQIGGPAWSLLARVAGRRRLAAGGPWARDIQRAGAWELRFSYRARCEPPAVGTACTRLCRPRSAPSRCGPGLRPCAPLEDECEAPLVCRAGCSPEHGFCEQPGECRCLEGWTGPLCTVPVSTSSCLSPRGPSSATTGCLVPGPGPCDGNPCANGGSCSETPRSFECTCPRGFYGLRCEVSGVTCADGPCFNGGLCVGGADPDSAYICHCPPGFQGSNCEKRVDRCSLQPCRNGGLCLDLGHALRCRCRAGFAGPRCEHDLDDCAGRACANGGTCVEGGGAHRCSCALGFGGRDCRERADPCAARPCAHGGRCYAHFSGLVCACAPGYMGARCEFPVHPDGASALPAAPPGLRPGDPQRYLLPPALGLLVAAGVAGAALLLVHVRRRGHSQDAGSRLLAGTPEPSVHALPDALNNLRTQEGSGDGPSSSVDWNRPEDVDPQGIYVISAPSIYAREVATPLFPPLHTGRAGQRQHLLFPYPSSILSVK
The experiment is described as follows: Affinity determination by Surface Plasmon Resonance (SPR), Biacore, 1:1 binding model. The following applies: biotinylated human DLL3 on streptavidin chip, 25° C.; NB = nonbinding. Summed up: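 SPR with biotinylated human DLL3 captured on a streptavidin chip, with a reference surface subtracted. Samples were injected at several concentrations at 100 μL/min in phosphate buffer with 137 mM NaCl, 2.7 mM KCl, 0.05% P20 and 2% DMSO. Kinetic and affinity constants came from a 1:1 binding fit.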
(In SPR one partner is held on a chip, and binding of the other changes the refractive index at the surface.)
By Kd is commonly meant the constant that tells how readily two partners part at equilibrium. In turn, `CC(=O)N[C@H](C(=O)N[C@@H](CO)C(=O)N[C@@H](CC(=O)O)C(=O)N[C@H]1CSSC[C@@H](C(=O)N[C@@H](CCCCNC(=O)CN2CCN(CC(=O)O)CCN(CC(=O)O)CCN(CC(=O)O)CC2)C(=O)N[C@@H](Cc2ccccc2)C(=O)N[C@@H](CC(=O)O)C(N)=O)NC(=O)[C@H](CC(N)=O)NC(=O)[C@H](Cc2c[nH]c3ccccc23)NC(=O)[C@H](CCC(N)=O)NC(=O)[C@H](CC(C)C)NC(=O)[C@H](Cc2c[nH]c3ccccc23)NC1=O)C1CCCCC1` [compound 101, Ac-(Chg)-S-D-C(3)-W-L-Q-W-N-C(3)-[L-Lys(DOTA)]-F-D-CONH2] (Ac-[Chg]SDCWLQWNCK(DOTA)FD-NH2; disulfide 4-10) returned a Kd of more than 300000 pM. As for `CC(=O)N[C@H](C(=O)N[C@@H](CO)C(=O)N[C@@H](CC(=O)O)C(=O)N[C@H]1CSSC[C@@H](C(=O)N2CCC[C@H]2C(=O)N[C@@H](CCCCNC(=O)CN2CCN(CC(=O)O)CCN(CC(=O)O)CCN(CC(=O)O)CC2)C(=O)N[C@@H](CC(=O)O)C(N)=O)NC(=O)[C@H](CC(N)=O)NC(=O)[C@H](Cc2c[nH]c3ccccc23)NC(=O)[C@H](CCC(N)=O)NC(=O)[C@H](CC(C)C)NC(=O)[C@H](Cc2c[nH]c3ccccc23)NC1=O)C1CCCCC1` [compound 102, Ac-(Chg)-S-D-C(3)-W-L-Q-W-N-C(3)-P-[L-Lys(DOTA)]-D-CONH2] (Ac-[Chg]SDCWLQWNCPK(DOTA)D-NH2; disulfide 4-10), the figure is more than 100000 pM; as for `CCCC[C@@H](NC(C)=O)C(=O)N[C@@H](CO)C(=O)N[C@@H](CC(=O)O)C(=O)N[C@H]1CSSC[C@@H](C(=O)N2CCC[C@H]2C(=O)N[C@@H](Cc2ccccc2)C(=O)N[C@@H](CC(=O)O)C(=O)N[C@H](CCCCNC(=O)CN2CCN(CC(=O)O)CCN(CC(=O)O)CCN(CC(=O)O)CC2)C(N)=O)NC(=O)[C@H](CC(N)=O)NC(=O)[C@H](Cc2c[nH]c3ccccc23)NC(=O)[C@H](CCC(N)=O)NC(=O)[C@H](CC(C)C)NC(=O)[C@H](Cc2cccc3ccccc23)NC1=O` [compound 103, Ac-(D-Nle)-S-D-C(3)-(1Nal)-L-Q-W-N-C(3)-P-F-D-D-Lys(DOTA)-CONH2] (Ac-[dNle]SDC[1Nal]LQWNCPFD[dK](DOTA)-NH2; disulfide 4-10), 350 pM; as for `CC(=O)N[C@H](C)C(=O)N[C@@H](CO)C(=O)N[C@@H](CC(=O)O)C(=O)N[C@H]1CSSC[C@@H](C(=O)N2CCC[C@H]2C(=O)N[C@@H](Cc2ccccc2)C(=O)N[C@@H](CC(=O)O)C(=O)N[C@H](CCCCNC(=O)CN2CCN(CC(=O)O)CCN(CC(=O)O)CCN(CC(=O)O)CC2)C(N)=O)NC(=O)[C@H](CC(N)=O)NC(=O)[C@H](Cc2c[nH]c3ccccc23)NC(=O)[C@H](CCC(N)=O)NC(=O)[C@H](CC(C)C)NC(=O)[C@H](Cc2cccc3ccccc23)NC1=O` [compound 104, Ac-(D-Ala)-S-D-C(3)-(1Nal)-L-Q-W-N-C(3)-P-F-D-D-Lys(DOTA)-CONH2] (Ac-[dA]SDC[1Nal]LQWNCPFD[dK](DOTA)-NH2; disulfide 4-10), 350 pM. The figure for `CC(=O)N[C@H](C(=O)N[C@@H](CO)C(=O)N[C@@H](CC(=O)O)C(=O)N[C@H]1CSSC[C@@H](C(=O)N(C)[C@H](C)C(=O)N[C@@](C)(Cc2ccccc2)C(=O)N[C@@H](CC(=O)O)C(=O)N[C@H](CCCCNC(=O)CN2CCN(CC(=O)O)CCN(CC(=O)O)CCN(CC(=O)O)CC2)C(N)=O)NC(=O)[C@H](CC(N)=O)NC(=O)[C@H](Cc2c[nH]c3ccccc23)NC(=O)[C@H](CCC(N)=O)NC(=O)[C@H](CC(C)C)NC(=O)[C@H](Cc2cccc3ccccc23)NC1=O)C1CCCCC1` [compound 109, Ac-(Chg)-S-D-C(3)-(1Nal)-L-Q-W-N-C(3)-(NMeD-Ala)-(aMe-F)-D-D-Lys(DOTA)-CONH2] (Ac-[Chg]SDC[1Nal]LQWNC[dNMeA][αMeF]D[dK](DOTA)-NH2; disulfide 4-10) is 960 pM.
